Measurements: ChEMBL document CHEMBL1201862, “PubChem BioAssay data set” (2004)
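Results reflect a 48-hour exposure of cells in 96-well plates to compound at five concentrations. At the GI50, growth is halved.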 Activity calls are given as the source filed them. No stated cut-off is given here; in the data, active = GI50 up to about 1.1 µM and inactive = higher.

Columns and labels:
Assay in all cases: inhibition of tumour cell growth, NCI panel, 48 h
ACHN = system: ACHN
UO-31 = system: UO-31
SNB-19 = system: SNB-19
U-251 = system: U-251
SW-620 = system: SW-620
Hs-578T = system: Hs-578T
SNB-75 = system: SNB-75
SR = system: SR
SF-295 = system: SF-295
NCI-H460 = system: NCI-H460
KM12 = system: KM12
TK-10 = system: TK-10
SF-268 = system: SF-268
T47D = system: T47D
HOP-62 = system: HOP-62
MDA-N = system: MDA-N
UACC-62 = system: UACC-62
MCF7 = system: MCF7
IGROV-1 = system: IGROV-1
DU-145 = system: DU-145
HCT-15 = system: HCT-15
MDA-MB-435 = system: MDA-MB-435
786-0 = system: 786-0
SK-OV-3 = system: SK-OV-3
OVCAR-5 = system: OVCAR-5
OVCAR-3 = system: OVCAR-3
NCI-H226 = system: NCI-H226
LOX IMVI = system: LOX IMVI
RXF 393 = system: RXF 393
Malme-3M = system: Malme-3M
BT-549 = system: BT-549
SF-539 = system: SF-539
NCI-H23 = system: NCI-H23
HL-60 = system: HL-60
HOP-92 = system: HOP-92
UACC-257 = system: UACC-257
CCRF-CEM = system: CCRF-CEM
NCI-H522 = system: NCI-H522
OVCAR-8 = system: OVCAR-8
A549 = system: A549
HT-29 = system: HT-29
SN12C = system: SN12C
MDA-MB-231 = system: MDA-MB-231
PC-3 = system: PC-3
COLO 205 = system: COLO 205
K562 = system: K562
NCI/ADR-RES = system: NCI/ADR-RES
SK-MEL-2 = system: SK-MEL-2
HCC 2998 = system: HCC 2998
OVCAR-4 = system: OVCAR-4
RPMI-8226 = system: RPMI-8226
EKVX = system: EKVX
MOLT-4 = system: MOLT-4
M14 = system: M14
CAKI-1 = system: CAKI-1
SK-MEL-28 = system: SK-MEL-28
SK-MEL-5 = system: SK-MEL-5
HCT-116 = system: HCT-116

In the case of `COc1ccc(C(=O)CC(c2ccc(OC)c(OC)c2)c2c(O)oc3ccccc3c2=O)cc1OC` (stereo not drawn), the GI50 (ACHN) is reported as > 100 µM (inactive), the GI50 (UO-31) is reported as > 100 µM (inactive) and the GI50 (SNB-19) is reported as > 100 µM (inactive). For the same compound, the GI50 (U-251) was > 100 µM (inactive), the GI50 (SW-620) was > 100 µM (inactive) and the GI50 (Hs-578T) was > 100 µM (inactive). The GI50 (SNB-75) was > 100 µM (inactive), the GI50 (SR) was > 100 µM (inactive) and the GI50 (SF-295) was > 100 µM (inactive). For the same compound, the GI50 (NCI-H460) was > 100 µM (inactive), the GI50 (KM12) was > 100 µM (inactive) and the GI50 (TK-10) was > 100 µM (inactive). The GI50 (SF-268) was > 100 µM (inactive), the GI50 (T47D) was > 100 µM (inactive) and the GI50 (HOP-62) was > 100 µM (inactive). For the same compound, the GI50 (MDA-N) was > 100 µM (inactive), the GI50 (UACC-62) was > 100 µM (inactive) and the GI50 (MCF7) was > 100 µM (inactive). For the same compound, the GI50 (IGROV-1) was > 100 µM (inactive), the GI50 (DU-145) was > 100 µM (inactive) and the GI50 (HCT-15) was greater than 100 µM. The GI50 (MDA-MB-435) was > 100 µM (inactive), the GI50 (786-0) was > 100 µM (inactive) and the GI50 (SK-OV-3) was > 100 µM (inactive). The GI50 (OVCAR-5) was > 100 µM (inactive), the GI50 (OVCAR-3) was > 100 µM (inactive) and the GI50 (NCI-H226) was > 100 µM (inactive). For the same compound, the GI50 (LOX IMVI) was > 100 µM (inactive), the GI50 (RXF 393) was > 100 µM (inactive) and the GI50 (Malme-3M) was > 100 µM (inactive). For the same compound, the GI50 (BT-549) was > 100 µM (inactive), the GI50 (SF-539) was > 100 µM (inactive) and the GI50 (NCI-H23) was > 100 µM (inactive). For the same compound, the GI50 (HL-60) was > 100 µM (inactive), the GI50 (HOP-92) was 28.4 µM (inactive) and the GI50 (UACC-257) was > 100 µM (inactive). The GI50 (CCRF-CEM) was > 100 µM (inactive), the GI50 (NCI-H522) was > 100 µM (inactive) and the GI50 (OVCAR-8) was > 100 µM (inactive). For the same compound, the GI50 (A549) was > 100 µM (inactive), the GI50 (HT-29) was > 100 µM (inactive) and the GI50 (SN12C) was > 100 µM (inactive). The GI50 (MDA-MB-231) was > 100 µM (inactive), the GI50 (PC-3) was > 100 µM (inactive) and the GI50 (COLO 205) was > 100 µM (inactive). For the same compound, the GI50 (K562) was > 100 µM (inactive), the GI50 (NCI/ADR-RES) was > 100 µM (inactive) and the GI50 (SK-MEL-2) was > 100 µM (inactive). For the same compound, the GI50 (HCC 2998) was > 100 µM (inactive), the GI50 (OVCAR-4) was > 100 µM (inactive) and the GI50 (RPMI-8226) was 95.1 µM (inactive). The GI50 (EKVX) was > 100 µM (inactive), the GI50 (MOLT-4) was > 100 µM (inactive) and the GI50 (M14) was > 100 µM (inactive). The GI50 (CAKI-1) was > 100 µM (inactive), the GI50 (SK-MEL-28) was > 100 µM (inactive) and the GI50 (SK-MEL-5) was > 100 µM (inactive). For the same compound, the GI50 (HCT-116) was > 100 µM (inactive).
With `CCNC1=C(NC(=O)c2ccccc2)C(=O)c2ccccc2C1=O` the GI50 (SNB-19) was 83.2 µM (inactive), the GI50 (U-251) was 33 µM (inactive) and the GI50 (SW-620) was 23.4 µM (inactive). The GI50 (Hs-578T) was 38.7 µM (inactive), the GI50 (SR) was 40.2 µM (inactive) and the GI50 (SF-295) was 32.4 µM (inactive). For the same compound, the GI50 (NCI-H460) was 39.4 µM (inactive), the GI50 (KM12) was 30.4 µM (inactive) and the GI50 (TK-10) was 98.4 µM (inactive). The GI50 (T47D) was 14.1 µM (inactive), the GI50 (HOP-62) was 66.2 µM (inactive) and the GI50 (MDA-N) was 4.9 µM (inactive). The GI50 (UACC-62) was 20 µM (inactive), the GI50 (MCF7) was 32.1 µM (inactive) and the GI50 (IGROV-1) was 46.9 µM (inactive). For the same compound, the GI50 (DU-145) was 57 µM (inactive), the GI50 (HCT-15) was 18.5 µM and the GI50 (MDA-MB-435) was 7.21 µM (inactive). For the same compound, the GI50 (786-0) was > 100 µM (inactive), the GI50 (SK-OV-3) was 24 µM (inactive) and the GI50 (OVCAR-5) was > 100 µM (inactive). The GI50 (OVCAR-3) was 25.1 µM (inactive), the GI50 (NCI-H226) was 27.9 µM (inactive) and the GI50 (RXF 393) was 24.2 µM (inactive). The GI50 (Malme-3M) was 16.8 µM (inactive), the GI50 (BT-549) was 90.4 µM (inactive) and the GI50 (SF-539) was 48.8 µM (inactive). For the same compound, the GI50 (NCI-H23) was 36.7 µM (inactive), the GI50 (HL-60) was 36.3 µM (inactive) and the GI50 (HOP-92) was 55.6 µM (inactive). The GI50 (UACC-257) was 23.4 µM (inactive), the GI50 (CCRF-CEM) was 70.1 µM (inactive) and the GI50 (NCI-H522) was 11.2 µM (inactive). For the same compound, the GI50 (OVCAR-8) was 46.8 µM (inactive), the GI50 (A549) was 67.6 µM (inactive) and the GI50 (HT-29) was 36.6 µM (inactive). The GI50 (SN12C) was 42.8 µM (inactive), the GI50 (MDA-MB-231) was 6.12 µM (inactive) and the GI50 (PC-3) was 18.2 µM (inactive). For the same compound, the GI50 (COLO 205) was 16.6 µM (inactive), the GI50 (K562) was 45.4 µM (inactive) and the GI50 (NCI/ADR-RES) was 16.7 µM (inactive). For the same compound, the GI50 (HCC 2998) was 33 µM (inactive), the GI50 (OVCAR-4) was 81.3 µM (inactive) and the GI50 (RPMI-8226) was > 100 µM (inactive). The GI50 (MOLT-4) was 63.4 µM (inactive), the GI50 (M14) was 26.2 µM (inactive) and the GI50 (SK-MEL-28) was 39.3 µM (inactive). For the same compound, the GI50 (SK-MEL-5) was > 10 µM (inactive) and the GI50 (HCT-116) was 25.8 µM (inactive).
